The values below come from PMC6792352, “Limited Chemical Structural Diversity Found to Modulate Thyroid Hormone Receptor in the Tox21 Chemical Library” (Environmental Health Perspectives, 2019).

Where two headings read alike, the source gives them in different places. Some results are limits rather than exact numbers.

The test system of series [1] is estrogen receptor. Details: method as in Judson et al. 2015. The conditions noted are these: model values ≥0.1 define actives; ref Judson et al. 2015; cited from earlier work.
Series [2] relates to thyroid hormone receptor (TR). Briefly: Classification of TR actives across characterization assays (TR-Ag / RXR-Ag; TR model binary). The conditions noted are these: candidate chemicals in Tables 2 and 3 define actives. Put shortly:
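GH3-TRE qHTS agonist, antagonist and viability modes over 8,305 compounds; 84 candidates rescreened in GH3-TRE-Ag, TRβ- and RXRα-UAS-bla HEK 293T one-hybrid assays, HEK293T viability, and TRα/TRβ coactivator recruitment. Actives classified binary after removing pharmaceuticals.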

The nature of series [3]: in vitro. Also noted: species or system GH3-TRE-Luc (rat pituitary); CellTiter-Fluor viability run in parallel with antagonist mode (1 nM T3), loss of viability. The following applies: rat, gh3-tre-luc cells, AC50 (uM) modified / 1000, Tox21_110001=Tox21_113033, viability, 1 nM T3 present.
The test system of series [4] is thyroid hormone receptor (endogenous TRα and TRβ). Briefly: cells. Also noted: species or system GH3-TRE-Luc (rat pituitary); GH3-TRE-Luc luciferase reporter transactivation, agonist mode, qHTS; RXR ligands can also activate indirectly. The following applies: 24 h, read-out: TR_LUC_GH3_Agonist_AC50 (uM).
For series [5] the test system is unchanged. Briefly: cells. Details: species or system GH3-TRE-Luc (rat pituitary); GH3-TRE-Luc luciferase reporter, antagonist mode against 1 nM T3, loss of signal, qHTS. The following applies: 24 h; antagonist mode, 1 nM T3; no GH3 cytotoxicity hit; read-out: Average AC50 (uM) GH3-TRE-Antag.
For series [6], the target named is T1, human TRβ ligand-binding domain (Homo sapiens, UniProt P10828).
T1 sequence (P10828 217-461 limits assumed): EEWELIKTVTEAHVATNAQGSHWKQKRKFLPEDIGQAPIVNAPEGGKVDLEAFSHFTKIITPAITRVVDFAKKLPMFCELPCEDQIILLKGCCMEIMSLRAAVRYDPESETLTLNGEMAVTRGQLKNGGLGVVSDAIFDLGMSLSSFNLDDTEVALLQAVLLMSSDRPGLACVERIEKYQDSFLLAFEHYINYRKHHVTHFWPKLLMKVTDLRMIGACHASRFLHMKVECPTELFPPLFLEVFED
Briefly: TRb-bla antagonist mammalian one-hybrid beta-lactamase assay (TOX21_TRB_BLA_Antagonist_Followup, aeid 2238-2240). It counts as cell-based. The following applies: for Emax: read-out: resp_max (maximum response value).

Series [7] can be described thus: in vitro. The conditions noted are these: rat, gh3-tre-luc cells, AC50 (uM) modified / 1000.
Series [8] deals with thyroid hormone receptor (endogenous TRα and TRβ). Description: GH3-TRE-Antag-Followup confirmation (TOX21_TR_LUC_GH3_Antagonist_Followup, aeid 2227). It counts as cell-based, rat. The conditions noted are these: Table S3, aeid 2227.
Series [9] deals with human retinoid X receptor alpha (RXRα) ligand-binding domain of the GeneBLAzer RXRα-UAS-bla HEK 293T one-hybrid assay (human).

As for `C=C1CCC2CC1C2(C)C` (single isomer, unassigned; (-)) [(-)-beta-Pinene], in series [1], the ER_Model_AUC_Agonist is recorded as 0 and the ER_Model_AUC_Antagonist is 0. In series [2], this compound showed a TR_Model_Binary_Agonist of 0 and a TR_Model_Binary_Antagonist of 0.
Turning to `C[C@]12CC[C@@H]3c4ccc(OC(=O)N(CCCl)CCCl)cc4CC[C@H]3[C@@H]1CC[C@@H]2OP(=O)(O)O` [Estramustine phosphate], the CC50 at 24 h in series [3] was greater than 50 µM. The AC50 in [4] was greater than 50 µM; in [5] it was 42.9 µM.
As to `O=C(O)c1cccnc1Nc1cccc(C(F)(F)F)c1` [Niflumic acid], in series [6] (Table S3, aeid 2238, ch1), the hitc was 0 and the Emax is 36.4%. Besides, in [6] (Table S3, aeid 2239, ch2), the hitc is 0 and the Emax came to 24.1%. Further, in series [6] (Table S3, aeid 2240, ratio), the hitc turned out to be 0 and the Emax was 46.2%. The CC50 at 24 h in series [7] is greater than 50 µM. Moreover, in series [8], the “flag (text output for the level 6 method)” value was “Borderline inactive”, the hitc was found to be 0, the “modl_tp (top asymptote for the winning model)” value stood at 11.5978 percent_activity and the “resp_max (maximum response value)” value is 41.1677 percent_activity.
Regarding (-)-alpha-Pinene, in series [1], the ER_Model_AUC_Agonist is given as 0 and the ER_Model_AUC_Antagonist was 0. In series [2], this compound had a TR_Model_Binary_Agonist of 0 and a TR_Model_Binary_Antagonist of 0.
Turning to Sincalide (peptide), the RXRa-bla-Ag AC50 (β-lactamase reporter gene, RXRα-UAS-bla HEK 293T mammalian one-hybrid assay, agonist mode) in series [9] turned out to be 10.5 µM.

As usually defined, the CC50 is the concentration giving 50% cytotoxicity.
